Experimental data reported in ChEMBL document CHEMBL1201862, “PubChem BioAssay data set” (2004).
Active and inactive are the calls of the source.

Assays:
[1] = tested on: Streptococcus sp. 'group A'; assay: growth inhibition of control SK(-) GAS strain, dose response, counter-screen for streptokinase expression inhibitor project, luminescence, kanamycin, BacTiterGlo, confirmation (AID 1900); format: functional, organism-based
[2] = microbe, parasite or virus in culture; format: functional; conditions: Mycobacterium tuberculosis
[3] = tested on: Streptococcus; assay: Group A Streptococcus viability loss, dose response, counter-screen for streptokinase expression inhibitor project, luminescence, BacTiterGlo (AID 1915); format: functional, organism-based;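 also: potency for reduction of bacterial viability or growth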
[4] = tested on: INS1; assay: beta cell apoptosis inhibitors, cytokine rescue, dose response, luminescence, retest (AID 449756); format: functional, cell-based; conditions: Rattus norvegicus;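 also: cell death triggered by IL-1 beta plus TNF-alpha plus IFN-gamma mixture; protective hits raise ATP signal compared with cytokine alone wells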
[5] = target: T1, Aminopeptidase N (Plasmodium falciparum FcB1/Columbia, UniProt O96935); assay: P. falciparum M1AAP inhibitors, biochemical, fluorogenic H-Leu-NHMec substrate, 1536-well (AID 1445); design: species or system Plasmodium falciparum 3D7, 3D7
T1 sequence (O96935 whole entry): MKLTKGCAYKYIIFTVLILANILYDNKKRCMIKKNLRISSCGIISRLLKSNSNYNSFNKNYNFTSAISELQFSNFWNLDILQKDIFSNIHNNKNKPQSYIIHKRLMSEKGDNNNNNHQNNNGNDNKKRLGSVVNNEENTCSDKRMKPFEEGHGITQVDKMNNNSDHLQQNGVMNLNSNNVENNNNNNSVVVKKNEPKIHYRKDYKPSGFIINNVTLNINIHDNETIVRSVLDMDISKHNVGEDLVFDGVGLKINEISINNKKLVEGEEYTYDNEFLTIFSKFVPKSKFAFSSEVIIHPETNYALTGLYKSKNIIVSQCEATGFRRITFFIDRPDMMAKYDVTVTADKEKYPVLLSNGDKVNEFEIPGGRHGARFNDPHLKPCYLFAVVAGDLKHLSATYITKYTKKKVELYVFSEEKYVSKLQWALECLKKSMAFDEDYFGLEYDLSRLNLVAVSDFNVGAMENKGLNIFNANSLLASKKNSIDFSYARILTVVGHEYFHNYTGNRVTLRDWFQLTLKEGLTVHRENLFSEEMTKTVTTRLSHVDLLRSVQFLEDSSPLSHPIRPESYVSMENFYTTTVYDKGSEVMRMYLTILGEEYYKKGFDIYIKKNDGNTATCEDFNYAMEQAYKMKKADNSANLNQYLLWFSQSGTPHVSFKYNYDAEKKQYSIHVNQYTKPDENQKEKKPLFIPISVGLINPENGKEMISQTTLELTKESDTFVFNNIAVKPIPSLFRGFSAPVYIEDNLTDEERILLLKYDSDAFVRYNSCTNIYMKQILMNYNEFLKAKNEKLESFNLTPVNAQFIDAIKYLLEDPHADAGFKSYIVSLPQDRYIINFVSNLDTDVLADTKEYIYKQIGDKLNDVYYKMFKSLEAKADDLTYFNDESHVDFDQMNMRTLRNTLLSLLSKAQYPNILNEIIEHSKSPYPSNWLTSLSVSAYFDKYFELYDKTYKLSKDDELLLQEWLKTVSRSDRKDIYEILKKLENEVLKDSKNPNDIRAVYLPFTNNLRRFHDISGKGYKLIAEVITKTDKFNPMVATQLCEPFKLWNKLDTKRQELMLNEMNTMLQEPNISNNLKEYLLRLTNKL

[6] = tested on: HEK293; assay: inhibitors of LMP1-driven NF-kB reporter, dose response, cell-based, HEK293, luciferase, cherry-pick (AID 588343); format: functional; conditions: Homo sapiens
[7] = target: T2, Replicative DNA helicase DnaB (Mycobacterium tuberculosis, UniProt P9WMR3); assay: DnaB intein splicing inhibitors, dose response, biochemical, cell-free fluorescence (AID 449749); format: functional
T2 sequence (P9WMR3 whole entry): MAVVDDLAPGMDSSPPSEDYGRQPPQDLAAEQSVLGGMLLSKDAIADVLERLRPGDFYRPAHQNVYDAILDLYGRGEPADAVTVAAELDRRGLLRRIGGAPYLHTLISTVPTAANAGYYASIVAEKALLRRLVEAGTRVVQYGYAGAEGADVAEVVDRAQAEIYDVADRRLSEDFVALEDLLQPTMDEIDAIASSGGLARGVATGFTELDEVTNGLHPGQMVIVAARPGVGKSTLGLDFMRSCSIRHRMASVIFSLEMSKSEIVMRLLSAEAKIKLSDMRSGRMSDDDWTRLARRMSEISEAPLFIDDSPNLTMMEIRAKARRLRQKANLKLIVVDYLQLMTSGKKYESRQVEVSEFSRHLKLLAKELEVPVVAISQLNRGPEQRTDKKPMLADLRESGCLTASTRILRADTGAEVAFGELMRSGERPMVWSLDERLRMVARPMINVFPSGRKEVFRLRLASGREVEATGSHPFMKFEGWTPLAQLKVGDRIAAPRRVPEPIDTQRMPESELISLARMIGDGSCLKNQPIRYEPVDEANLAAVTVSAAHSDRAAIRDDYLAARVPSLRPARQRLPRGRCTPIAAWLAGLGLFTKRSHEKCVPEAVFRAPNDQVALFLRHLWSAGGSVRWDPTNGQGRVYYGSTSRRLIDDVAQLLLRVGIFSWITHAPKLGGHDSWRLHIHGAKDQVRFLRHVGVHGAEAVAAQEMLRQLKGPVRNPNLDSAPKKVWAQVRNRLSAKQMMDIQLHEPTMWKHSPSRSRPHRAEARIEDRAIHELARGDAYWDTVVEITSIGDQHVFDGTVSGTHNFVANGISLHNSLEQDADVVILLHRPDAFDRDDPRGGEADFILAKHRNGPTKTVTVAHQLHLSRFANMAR

[8] = target: T3, Protein RecA (Mycobacterium tuberculosis, UniProt P9WHJ3); assay: Fluorescence Cell-Free Homogeneous Dose Retest to Identify Inhibitors of RecA-Intein Splicing Activity. [Related pubchem assays (depositor defined):AID2097, AID2223, AID489010, AID492950]; format: functional
T3 sequence (P9WHJ3 whole entry): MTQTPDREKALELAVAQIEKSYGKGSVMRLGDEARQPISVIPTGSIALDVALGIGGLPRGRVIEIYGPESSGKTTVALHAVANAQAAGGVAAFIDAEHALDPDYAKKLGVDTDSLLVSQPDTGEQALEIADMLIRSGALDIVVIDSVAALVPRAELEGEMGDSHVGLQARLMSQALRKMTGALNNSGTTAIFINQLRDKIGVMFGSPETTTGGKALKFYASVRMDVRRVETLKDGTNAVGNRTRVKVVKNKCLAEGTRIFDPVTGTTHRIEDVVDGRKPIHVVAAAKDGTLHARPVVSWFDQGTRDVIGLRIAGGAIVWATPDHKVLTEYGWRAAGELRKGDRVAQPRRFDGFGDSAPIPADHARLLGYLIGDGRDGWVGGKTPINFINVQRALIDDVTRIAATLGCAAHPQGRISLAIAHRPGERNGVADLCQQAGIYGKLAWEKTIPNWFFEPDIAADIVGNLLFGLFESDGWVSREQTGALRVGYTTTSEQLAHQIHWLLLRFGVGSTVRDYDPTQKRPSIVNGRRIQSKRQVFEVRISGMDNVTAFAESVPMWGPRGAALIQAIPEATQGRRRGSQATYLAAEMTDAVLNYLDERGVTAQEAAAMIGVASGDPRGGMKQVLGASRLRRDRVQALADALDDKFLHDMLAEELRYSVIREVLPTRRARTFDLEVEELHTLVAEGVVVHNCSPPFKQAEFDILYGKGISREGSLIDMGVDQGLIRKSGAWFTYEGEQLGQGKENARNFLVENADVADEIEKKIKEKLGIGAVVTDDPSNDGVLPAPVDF

[9] = target: Genome polyprotein (dengue virus type 2, UniProt P29990); assay: Dengue-2 NS5 methyltransferase inhibitors, primary screen, biochemical, confirmation dose response (AID 588689); format: functional
Chain of Genome polyprotein (P29990 2492-3391 limits assumed): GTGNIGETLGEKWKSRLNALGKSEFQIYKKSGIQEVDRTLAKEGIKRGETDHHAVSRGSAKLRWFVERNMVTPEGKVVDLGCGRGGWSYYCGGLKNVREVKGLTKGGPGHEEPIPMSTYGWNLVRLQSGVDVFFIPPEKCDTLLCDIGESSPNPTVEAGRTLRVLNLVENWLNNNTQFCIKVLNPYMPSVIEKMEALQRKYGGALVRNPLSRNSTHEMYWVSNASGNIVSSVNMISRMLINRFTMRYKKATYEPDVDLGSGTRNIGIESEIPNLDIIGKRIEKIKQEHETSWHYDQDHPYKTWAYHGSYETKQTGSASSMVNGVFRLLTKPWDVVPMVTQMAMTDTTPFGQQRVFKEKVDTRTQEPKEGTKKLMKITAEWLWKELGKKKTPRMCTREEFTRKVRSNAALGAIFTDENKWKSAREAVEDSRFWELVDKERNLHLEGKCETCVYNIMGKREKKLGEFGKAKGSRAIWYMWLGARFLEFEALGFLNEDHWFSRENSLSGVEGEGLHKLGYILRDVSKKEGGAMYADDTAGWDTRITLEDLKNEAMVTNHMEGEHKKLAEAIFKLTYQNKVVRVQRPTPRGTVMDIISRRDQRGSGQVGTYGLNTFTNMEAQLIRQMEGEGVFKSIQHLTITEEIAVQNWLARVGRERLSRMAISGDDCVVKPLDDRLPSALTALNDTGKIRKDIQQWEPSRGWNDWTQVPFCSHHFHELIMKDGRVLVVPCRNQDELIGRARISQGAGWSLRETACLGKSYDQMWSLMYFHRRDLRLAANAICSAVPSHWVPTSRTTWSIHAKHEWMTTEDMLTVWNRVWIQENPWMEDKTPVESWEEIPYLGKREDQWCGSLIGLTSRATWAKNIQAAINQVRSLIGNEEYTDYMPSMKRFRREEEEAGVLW

[10] = target: Nuclear receptor subfamily 5 group A member 2 (Homo sapiens, UniProt O00482); format: functional, cell-based;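 also: HEK293T cells transfected with LRH-1 and a StAR promoter luciferase reporter; potency for inhibitors that lower LRH-1 driven reporter light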
Chain of Nuclear receptor subfamily 5 group A member 2 (O00482 whole entry): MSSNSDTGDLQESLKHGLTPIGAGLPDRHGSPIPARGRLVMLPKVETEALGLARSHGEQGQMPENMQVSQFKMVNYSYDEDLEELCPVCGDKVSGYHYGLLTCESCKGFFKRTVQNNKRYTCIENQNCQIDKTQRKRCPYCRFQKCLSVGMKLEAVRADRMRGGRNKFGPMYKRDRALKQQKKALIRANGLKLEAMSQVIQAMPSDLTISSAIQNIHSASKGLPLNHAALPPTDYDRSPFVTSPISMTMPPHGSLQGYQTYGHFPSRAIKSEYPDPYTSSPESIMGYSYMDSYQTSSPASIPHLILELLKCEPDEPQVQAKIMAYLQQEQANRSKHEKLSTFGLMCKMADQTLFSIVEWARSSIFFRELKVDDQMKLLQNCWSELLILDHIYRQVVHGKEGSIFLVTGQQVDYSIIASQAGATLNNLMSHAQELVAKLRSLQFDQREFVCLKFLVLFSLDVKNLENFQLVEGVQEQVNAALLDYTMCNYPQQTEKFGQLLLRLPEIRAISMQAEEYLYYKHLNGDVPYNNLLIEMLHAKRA

[11] = target: Steroidogenic factor 1 (Homo sapiens, UniProt Q13285); assay: Counterscreen for inverse agonists of the liver receptor homolog-1 (LRH-1; NR5A2): Luminescence-based cell-based high throughput dose response assay to identify inverse agonists of the Steroidogenic Factor 1 Nuclear Receptor (SF1; NR5A1).; format: functional
Chain of Steroidogenic factor 1 (Q13285 whole entry): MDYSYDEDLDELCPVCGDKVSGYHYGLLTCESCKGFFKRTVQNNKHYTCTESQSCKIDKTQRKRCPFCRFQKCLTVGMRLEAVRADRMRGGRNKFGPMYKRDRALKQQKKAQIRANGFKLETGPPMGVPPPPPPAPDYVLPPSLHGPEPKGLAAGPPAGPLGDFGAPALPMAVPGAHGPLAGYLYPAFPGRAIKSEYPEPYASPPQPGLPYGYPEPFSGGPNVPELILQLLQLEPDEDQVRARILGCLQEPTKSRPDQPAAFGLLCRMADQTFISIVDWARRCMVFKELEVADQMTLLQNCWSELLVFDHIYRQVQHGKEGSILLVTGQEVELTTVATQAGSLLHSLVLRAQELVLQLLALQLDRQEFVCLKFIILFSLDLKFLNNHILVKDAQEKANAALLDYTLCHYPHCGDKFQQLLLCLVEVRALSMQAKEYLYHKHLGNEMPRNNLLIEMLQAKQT

[12] = StAR promoter reporter inhibition counter-screen, dose response, counter-screen for LRH-1 inverse agonist project, cell-based, luminescence, luciferase reporter (AID 651969); format: functional
[13] = target: T4, Estrogen receptor (Homo sapiens, UniProt P03372);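 also: potency for inhibiting coactivator peptide recruitment to the receptor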
T4 sequence (P03372 whole entry): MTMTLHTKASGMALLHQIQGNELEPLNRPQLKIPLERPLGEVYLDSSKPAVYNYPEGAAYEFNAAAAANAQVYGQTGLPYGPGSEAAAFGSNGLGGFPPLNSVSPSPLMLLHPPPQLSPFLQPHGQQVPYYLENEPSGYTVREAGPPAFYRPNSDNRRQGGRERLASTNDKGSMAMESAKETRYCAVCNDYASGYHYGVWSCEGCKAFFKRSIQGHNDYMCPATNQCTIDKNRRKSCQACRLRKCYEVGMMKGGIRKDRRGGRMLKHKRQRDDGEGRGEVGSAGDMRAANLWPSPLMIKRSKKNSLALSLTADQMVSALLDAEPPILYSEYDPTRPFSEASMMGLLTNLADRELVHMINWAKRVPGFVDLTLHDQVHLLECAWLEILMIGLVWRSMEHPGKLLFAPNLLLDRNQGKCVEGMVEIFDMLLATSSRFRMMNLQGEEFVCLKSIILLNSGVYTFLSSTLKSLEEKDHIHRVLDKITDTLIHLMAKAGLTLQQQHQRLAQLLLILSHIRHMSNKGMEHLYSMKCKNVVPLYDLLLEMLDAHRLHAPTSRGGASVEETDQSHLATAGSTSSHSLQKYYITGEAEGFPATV

[14] = inhibitors of HIV Env-driven cell fusion, dose response, cherry-pick (AID 652057); format: functional, cell-based
[15] = ZM109 Env clade C HIV-1 fusion inhibitors, dose response, HeLa effector, CEM target cells, luciferase, cherry-pick (AID 652058); format: functional, cell-based
[16] = off-target signal loss in HeLa-CEM21 co-culture – HeLa F-luc CTL cells, cherry-picked, counter-screen for HIV-1 Env fusion inhibitor project, dose response (AID 652040); format: functional, cell-based;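 also: potency for signal decrease marking cytotoxic or nonspecific inhibition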
[17] = inhibitors of clade B AD8 Env fusion, dose response, cell-based, cherry-pick (AID 652062); format: functional;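 also: luciferase signal from cell-cell fusion driven by HIV-1 clade B AD8 Env; potency is for inhibitors of fusion seen as a drop in luminescence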
[18] = cells; format: functional, cell-based
[19] = cells; format: functional, cell-based; remark: listed apart in the source
[20] = target: T5, Ubiquitin-conjugating enzyme E2 N (Homo sapiens, UniProt P61088); format: functional;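 also: Dose-response confirmation in a TR-FRET assay detecting UBC13-driven polyubiquitin chain formation, inhibition measured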
T5 sequence (P61088 whole entry): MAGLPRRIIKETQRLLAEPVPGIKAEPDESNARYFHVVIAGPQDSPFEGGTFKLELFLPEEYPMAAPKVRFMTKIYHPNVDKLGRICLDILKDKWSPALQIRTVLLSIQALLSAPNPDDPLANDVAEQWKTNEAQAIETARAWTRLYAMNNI

[21] = tested on: BJ; assay: cytotoxicity toward BJ-TERT fibroblasts, dose response, cell-based, RAS-independent, luminescence (AID 1933); format: functional; conditions: Homo sapiens
[22] = tested on: BJ; assay: cells; format: functional, cell-based; conditions: Homo sapiens
[23] = tested on: BJ; assay: cytotoxicity toward BJ-TERT-LT-ST fibroblasts, dose response, cell-based, RAS-independent, luminescence (AID 1935); format: functional; conditions: Homo sapiens;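 also: BJ fibroblasts immortalized with TERT plus LT and ST oncogenes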
[24] = cytotoxicity toward DRD oncogenic fibroblasts, dose response, cell-based, non-viral oncogenic, luminescence (AID 1934); format: functional; conditions: Homo sapiens

N=C(NNC(=O)c1sccc1OCc1ccc(Cl)cc1Cl)c1ccccn1
EC50 [1]: 3.89 µM (active) | CC50 [2]: 6.31 µM (active) | EC50 [3]: > 150 µM (not active) | AC50 [4]: 5.2 µM (active)

Cc1nnc(SCC(=O)N2CCC(c3noc4ccc(F)cc34)CC2)s1
IC50 [5]: 39.1 µM (active) | AC50 [6]: 9.92 µM (active)

Cc1[nH]n(-c2ccccc2)c(=O)c1C(c1ccccc1[N+](=O)[O-])C(C#N)C#N (stereo unspecified)
AC50 [7]: 3.3 µM (active) | EC50 [8]: 7.28 µM (active) | IC50 [9]: 86.4 µM (active)

Cc1nnc(SCC(=O)Nc2ccc(Br)cc2)n(N)c1=O
IC50 [10]: 35.9 µM (inactive) | IC50 [11]: 20.1 µM (inactive) | IC50 [12]: 35.9 µM (inactive)

O=C1/C(=C2\C(=O)N(Cc3ccc(F)cc3)c3ccccc32)SC(=S)N1CCS(=O)(=O)O
IC50 [9]: 32.5 µM (active)

COc1cc(NC(=O)c2cccs2)c(C(=O)OCC(=O)NCc2ccco2)cc1OC
IC50 [13]: 14.8 µM (active) | CC50 [2]: > 40 µM (active)

CC[C@]1(C(=O)OC)[C@H]2C(=O)N(Cc3ccccc3)C(=O)[C@H]2[C@H]2CN=C(SCc3ccc(C#N)cc3)N21
AC50 [6]: 4.97 µM (active) | AC50 [14]: 709 nM (active) | AC50 [15]: 1.07 µM (active) | AC50 [16]: 1.45 µM (active) | AC50 [17]: 5.1 µM (active)

CC(=O)Nc1cc(-c2cccc(F)c2)cn2c(-c3ccc(S(C)(=O)=O)cc3)cnc12
IC50 [10]: 5.75 µM (active) | IC50 [11]: 2.36 µM (active) | IC50 [12]: 31.1 µM (inactive)

N#Cc1ccc(-c2csc(NNC(=O)c3ccc(Br)cc3)n2)cc1
EC50 [18]: > 350 µM (not active) | EC50 [19]: > 350 µM (not active) | AC50 [6]: 8.39 µM (active) | AC50 [4]: 7.72 µM (active)

Cc1cccc(CN2C(=O)CSc3ccc(C(=O)NC4CC4)cc32)c1
IC50 [10]: 1.89 µM (active) | IC50 [11]: 1.21 µM (active) | IC50 [12]: 20.1 µM (inactive)

C=CCn1c(=O)/c(=C/c2ccc(Cl)cc2)s/c1=C(\C#N)c1nnc2n1CCCCC2
AC50 [6]: 23.9 µM (active)

Cc1cccc(NS(=O)(=O)c2ccc(C(=O)N3CCN(c4ccccc4O)CC3)cc2)c1C
CC50 [2]: 36.6 µM (active)

NC(=O)CCn1c(C(=O)c2cc(Cl)c(N)c(Cl)c2)c2ccccc2[n+]1[O-]
IC50 [20]: > 20 µM (inactive)

CCOC(=O)c1[nH]c(C)c(C(=O)c2ccc(C)cc2)c1C
EC50 [21]: 3.19 µM (inconclusive) | EC50 [22]: 23.5 µM (active) | EC50 [23]: 27.4 µM (inconclusive) | EC50 [24]: 3.16 µM (active)

CNC[C@H](Cc1cccc2ccccc12)NC[C@H](CCSC)NCC1CCC(C(C)(C)C)CC1 (stereo partly specified)
CC50 [2]: 25.4 µM (active)

CCOc1ccc(N2C(=O)C3C(c4ccccc4)=NN(c4ccccc4)C3C2=O)cc1 (stereo unspecified)
IC50 [20]: > 20 µM (inactive)

CC[C@H](C)[C@@H](CN[C@H](C)CNC)NCCC(c1ccccc1)c1ccccc1
IC50 [20]: > 20 µM (inactive)

CCCc1cnc(NCCNCC(O)COc2ccc(Cl)c(Cl)c2)nc1 (stereo unspecified)
CC50 [2]: 22.1 µM (active)
